Among the data in patent US20250382273A1 (INSTITUT NATIONAL DE LA SANTE ET DE LA RECHERCHE MEDICALE, priority 2022, published 2025) are EC50 values, retold here.

SMILES strings stand for the structures. Read-outs that look alike come from different tables or passages of the source.

By EC50 is commonly meant the concentration that produces a half-maximal response.

Test [1] relates to M. tuberculosis H37Rv_gfp. In kind it is cell-based, Mycobacterium tuberculosis.
Test [2] concerns M. tuberculosis H37Rv_gfp. The class given is cell-based, Mycobacterium tuberculosis. The following applies: in combination with delamanid 4 ng·mL−1, 5 days at 37° C.
The mark [3] stands for this setting: in combination with pretomanid 20 ng·mL−1, 5 days at 37° C., […], read-out: EC50 H37Rv_gfp.
Setting [4] is: in combination with pretomanid, unit inferred, read-out: average EC50 H37Rv_gfp.

For the molecule `Cc1ccc2nc(N3C(=O)[C@@H]4[C@H](C3=O)[C@@H]3C=C[C@H]4C3)sc2c1` [Example 2, (1R,2S,6R,7S)-4-(6-methyl-1,3-benzothiazol-2-yl)-4-azatricyclo[5.2.1.02,6]dec-8-ene-3,5-dione], the EC50 in test [1] (setting [3]) was < 1 µM; in test [2] it was 0.42 µM. For `O=C(Nc1nc2ccc(Oc3ccccc3)cc2s1)[C@@H]1C2C=CC(C2)[C@@H]1C(=O)O` (stereo partly drawn) [Example 18, [2-hydroxy-1,1-bis(hydroxymethyl)ethyl]ammonium: (1R,2S,3R,4S)-3-[(6-phenoxy-1,3-benzothiazol-2-yl)carbamoyl]bicyclo[2.2.1]hept-5-ene-2-carboxylate], the concentration for a half-maximal effect (EC50) was < 1 µM in test [1] (setting [3]) and 0.16 µM in test [2].

As to `O=C(Nc1nc2ccc(Oc3cc(C(F)(F)F)ccn3)cc2s1)[C@@H]1C2C=CC(C2)[C@@H]1C(=O)O` (stereo partly drawn) [Example 27, 3-[[6-[[4-(trifluoromethyl)-2-pyridyl]oxy]-1,3-benzothiazol-2-yl]carbamoyl]bicyclo[2.2.1]hept-5-ene-2-carboxylic acid], the EC50 was < 1 µM in test [1] (setting [3]), 0.11 µM in test [1] (setting [4]) and 0.15 µM in test [2]. Regarding `O=C1[C@@H]2C3C=CC(C3)[C@@H]2C(=O)N1c1nc2ccc(Nc3ccnc(C(F)(F)F)c3)cc2s1` [Example 90, 4-[6-[[2-(trifluoromethyl)-4-pyridyl]amino]-1,3-benzothiazol-2-yl]-4-azatricyclo[5.2.1.02,6]dec-8-ene-3,5-dione], the EC50 in test [1] (setting [3]) was < 1 µM. The same measure, in the same setting: with `O=C1[C@@H]2C3C=CC(C3)[C@@H]2C(=O)N1c1nc2ccc(Nc3ccc(F)cn3)cc2s1` [Example 87, 4-[6-[(5-fluoro-2-pyridyl)amino]-1,3-benzothiazol-2-yl]-4-azatricyclo[5.2.1.02,6]dec-8-ene-3,5-dione] the figure was < 1 µM. On to `CC(C)(C)C#Cc1ccc2nc(NC(=O)[C@@H]3C4C=CC(C4)[C@@H]3C(=O)O)sc2c1` (stereo partly drawn) [Example 78, 3-[[6-(3,3-dimethylbut-1-ynyl)-1,3-benzothiazol-2-yl]carbamoyl]bicyclo [2.2.1]hept-5-ene-2-carboxylic acid], for which the EC50 in test [1] (setting [3]) is < 1 µM; in test [1] (setting [4]), 0.13 µM.

For the molecule `O=C(Nc1nc2ccc(Nc3cncc(C(F)(F)F)c3)cc2s1)[C@@H]1C2C=CC(C2)[C@@H]1C(=O)O` (stereo partly drawn) [Example 91, 3-[[6-[[5-(trifluoromethyl)-3-pyridyl]amino]-1,3-benzothiazol-2-yl]carbamoyl]bicyclo[2.2.1]hept-5-ene-2-carboxylic acid], in test [1] (setting [3]), the EC50 is 1 to 5 µM. Same read-out and setting: as for `O=C1[C@@H]2[C@H](C(=O)N1c1nc3ccc(Oc4ccc(C(F)(F)F)cc4)cc3s1)[C@@H]1C=C[C@H]2C1` [Example 23, (1R,2S,6R,7S)-4-[6-[4-(trifluoromethyl)phenoxy]-1,3-benzothiazol-2-yl]-4-azatricyclo[5.2.1.02,6]dec-8-ene-3,5-dione], the figure is 1 to 5 µM; as for `O=C(Nc1nc2cc(Br)ccc2s1)[C@@H]1C2C=CC(C2)[C@@H]1C(=O)O` (stereo partly drawn) [Example 48, 3-[(5-bromo-1,3-benzothiazol-2-yl)carbamoyl]bicyclo[2.2.1]hept-5-ene-2-carboxylic acid], 1 to 5 µM. `O=C(Nc1nc2cc3c(cc2s1)OCCO3)[C@@H]1C2C=CC(C2)[C@@H]1C(=O)O` (stereo partly drawn) [Example 10, 3-(6,7-dihydro-[1,4]dioxino[2,3-f][1,3]benzothiazol-2-ylcarbamoyl) bicyclo[2.2.1]hept-5-ene-2-carboxylic acid]: the EC50 in test [1] (setting [3]) was 10 to 20 µM. Turning to `Cc1ccc2nc(N3C(=O)[C@@H]4[C@@H]5CC[C@@H](C5)[C@@H]4C3=O)sc2c1` [Example 4, (1S,2S,6R,7R)-4-(6-methyl-1,3-benzothiazol-2-yl)-4-azatricyclo[5.2.1.02,6]decane-3,5-dione], the EC50 in test [1] (setting [3]) lay in the range of 10 to 20 µM. As to `Cc1ccnc(Nc2ccc3nc(NC(=O)[C@@H]4C5C=CC(C5)[C@@H]4C(=O)O)sc3c2)c1` (stereo partly drawn) [Example 84, 3-[[6-[(4-methyl-2-pyridyl)amino]-1,3-benzothiazol-2-yl]carbamoyl]bicyclo[2.2.1]hept-5-ene-2-carboxylic acid], in test [1] (setting [3]), the EC50 was 1 to 5 µM. In the case of `CC(C)(C)c1ccc2nc(NC(=O)[C@@H]3C4C=CC(C4)[C@@H]3C(=O)O)sc2c1` (stereo partly drawn) [Example 12, 3-[(6-tert-butyl-1,3-benzothiazol-2-yl)carbamoyl]bicyclo[2.2.1]hept-5-ene-2-carboxylic acid], in test [1] (setting [3]), the EC50 was < 1 µM.

Take `COc1ccc2nc(NC(=O)[C@@H]3C4C=CC(C4)[C@@H]3C(=O)O)sc2c1` (stereo partly drawn) [Example 6, 3-[(6-methoxy-1,3-benzothiazol-2-yl)carbamoyl]bicyclo[2.2.1]hept-5-ene-2-carboxylic acid]: the EC50 in test [1] (setting [3]) lay within 1 to 5 µM. As to `O=C(Nc1nc2ccc(-c3ccc(OC(F)(F)F)cc3)cc2s1)[C@@H]1C2C=CC(C2)[C@@H]1C(=O)O` (stereo partly drawn) [Example 62, 3-[[6-[4-(trifluoromethoxy)phenyl]-1,3-benzothiazol-2-yl]carbamoyl]bicyclo[2.2.1]hept-5-ene-2-carboxylic acid], in test [1] (setting [3]), the EC50 was < 1 µM. On the same count and under the same terms, as for `N#Cc1ccnc(Oc2ccc3nc(N4C(=O)[C@@H]5[C@H](C4=O)[C@@H]4C=C[C@H]5C4)sc3c2)c1` [Example 31, 2-[[2-[(1R,2S,6R,7S)-3,5-dioxo-4-azatricyclo[5.2.1.02,6]dec-8-en-4-yl]-1,3-benzothiazol-6-yl]oxy]pyridine-4-carbonitrile], the figure is 1 to 5 µM; as for `O=C(Nc1nc2ccc(F)cc2s1)[C@@H]1C2C=CC(C2)[C@@H]1C(=O)O` (stereo partly drawn) [Example 42, 3-[(6-fluoro-1,3-benzothiazol-2-yl)carbamoyl]bicyclo[2.2.1]hept-5-ene-2-carboxylic acid], 1 to 5 µM.

For the molecule `CCOc1ccc2nc(NC(=O)[C@@H]3C4C=CC(C4)[C@@H]3C(=O)O)sc2c1` (stereo partly drawn) [Example 7, 3-[(6-ethoxy-1,3-benzothiazol-2-yl)carbamoyl]bicyclo[2.2.1]hept-5-ene-2-carboxylic acid], the figures for the concentration giving a half-maximal response (EC50) in test [1] (setting [3]) and in test [1] (setting [4]) were < 1 µM and 0.15 µM, respectively.

For the molecule `O=C(Nc1nc2ccc(C#Cc3ccccc3)cc2s1)[C@@H]1C2C=CC(C2)[C@@H]1C(=O)O` (stereo partly drawn) [Example 77, 3-[[6-(2-phenylethynyl)-1,3-benzothiazol-2-yl]carbamoyl]bicyclo[2.2.1]hept-5-ene-2-carboxylic acid], in test [1] (setting [3]), the concentration for a half-maximal effect (EC50) was < 1 µM. Still for that read-out and setting: with `O=C(Nc1nc2ccc(Oc3ccc(Br)cn3)cc2s1)[C@@H]1C2C=CC(C2)[C@@H]1C(=O)O` (stereo partly drawn) [Example 37, 3-[[6-[(5-bromo-2-pyridyl)oxy]-1,3-benzothiazol-2-yl]carbamoyl]bicyclo [2.2.1]hept-5-ene-2-carboxylic acid] the figure was 1 to 5 µM. On to `N#Cc1ccc2nc(NC(=O)[C@@H]3C4C=CC(C4)[C@@H]3C(=O)O)sc2c1` (stereo partly drawn) [Example 40, 3-[(6-cyano-1,3-benzothiazol-2-yl)carbamoyl]bicyclo[2.2.1]hept-5-ene-2-carboxylic acid], for which, in test [1] (read-out: EC50 H37Rv_gfp), the EC50 fell in the range of 1 to 5 µM. Consider `O=C1[C@@H]2C3C=CC(C3)[C@@H]2C(=O)N1c1nc2ccc(Nc3ccc(C(F)(F)F)cn3)cc2s1` [Example 95], for which, in test [1] (setting [3]), the EC50 is < 1 µM. On to `O=C(Nc1nc2ccc(Cc3ccccc3)cc2s1)[C@@H]1C2C=CC(C2)[C@@H]1C(=O)O` (stereo partly drawn) [Example 20, 3-[(6-benzyl-1,3-benzothiazol-2-yl)carbamoyl]bicyclo[2.2.1]hept-5-ene-2-carboxylic acid], for which the EC50 in test [1] (setting [3]) is < 1 µM.

`Cc1ccc(-c2ccc3nc(NC(=O)[C@@H]4C5C=CC(C5)[C@@H]4C(=O)O)sc3c2)cc1` (stereo partly drawn) [Example 53, 3-[[6-(p-tolyl)-1,3-benzothiazol-2-yl]carbamoyl]bicyclo[2.2.1]hept-5-ene-2-carboxylic acid]: the EC50 in test [1] (setting [3]) was < 1 µM. Turning to `C#CCOc1cccc2sc(NC(=O)[C@@H]3C4C=CC(C4)[C@@H]3C(=O)O)nc12` (stereo partly drawn) [Example 75, 3-[(4-prop-2-ynoxy-1,3-benzothiazol-2-yl)carbamoyl]bicyclo[2.2.1]hept-5-ene-2-carboxylic acid], in test [1] (setting [3]), the EC50 was < 1 µM.

Turning to `Cc1ccc2nc(NC(=O)[C@@H]3C4C=CC(C4)[C@@H]3C(=O)O)sc2c1` (mixture of isomers) [Example 1, 3-[(6-methyl-1,3-benzothiazol-2-yl)carbamoyl]bicyclo[2.2.1]hept-5-ene-2-carboxylic acid], the EC50 is 1 to 5 µM in test [1] (setting [3]) and 0.31 µM in test [2].

For `O=C(Nc1nc2ccc(Oc3ccc(C(F)(F)F)cn3)cc2s1)[C@@H]1C2C=CC(C2)[C@@H]1C(=O)O` (stereo partly drawn) [Example 35, 3-[[6-[[5-(trifluoromethyl)-2-pyridyl]oxy]-1,3-benzothiazol-2-yl]carbamoyl]bicyclo[2.2.1]hept-5-ene-2-carboxylic acid], the EC50 in test [1] (setting [3]) fell in the range of 1 to 5 µM. In the case of `O=C(Nc1nc2ccc(I)cc2s1)[C@@H]1C2C=CC(C2)[C@@H]1C(=O)O` (stereo partly drawn) [Example 49, 3-[(6-iodo-1,3-benzothiazol-2-yl)carbamoyl]bicyclo[2.2.1]hept-5-ene-2-carboxylic acid], the half-maximal effective concentration (EC50) in test [1] (setting [3]) lay within 1 to 5 µM. In the case of `O=C1[C@@H]2C3C=CC(C3)[C@@H]2C(=O)N1c1nc2ccc(Nc3cccc(C(F)(F)F)n3)cc2s1` [Example 97, 4-[6-[[6-(trifluoromethyl)-2-pyridyl]amino]-1,3-benzothiazol-2-yl]-4-azatricyclo[5.2.1.02,6]dec-8-ene-3,5-dione], the EC50 in test [1] (setting [3]) was < 1 µM.
